From PubChem BioAssay (NCI)
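Dose response: 5 concentrations. Exposure: 48 h. Format: 96-well plates. Endpoint: linear interpolation; highest concentration if not reached. TGI marks complete inhibition of growth.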

Experiments:
Test in all cases: NCI anticancer screen, dose series, 48 h
[1] = system: CAKI-1 renal
[2] = system: HCT-116 colon
[3] = system: HCT-15 colon
[4] = system: IGROV1 ovarian
[5] = system: MCF7 breast
[6] = system: OVCAR-4 ovarian
[7] = system: OVCAR-5 ovarian
[8] = system: OVCAR-8 ovarian
[9] = system: RXF 393 renal
[10] = system: SK-MEL-5 melanoma
[11] = system: SK-OV-3 ovarian
[12] = system: SN12C renal
[13] = system: SNB-19 CNS
[14] = system: SR leukemia
[15] = system: SW-620 colon
[16] = system: U251 CNS
[17] = system: UACC-62 melanoma
[18] = system: UO-31 renal
[19] = system: NCI-H522 lung

Compound | TGI [1] | TGI [2] | TGI [3] | TGI [4] | TGI [5] | TGI [6] | TGI [7] | TGI [8] | TGI [9] | TGI [10] | TGI [11] | TGI [12] | TGI [13] | TGI [14] | TGI [15] | TGI [16] | TGI [17] | TGI [18] | TGI [19]
CC[C@]12C=CCN3CC[C@@]4(c5cc(Br)c(OC)c([N+](=O)[O-])c5N(C)[C@H]4[C@@](O)(C(=O)OC)[C@@H]1OC(C)=O)[C@@H]32 | > 100 µM | > 100 µM | > 100 µM | 61.4 µM | > 100 µM | > 100 µM | > 100 µM | > 100 µM | > 100 µM | > 100 µM | > 100 µM | > 100 µM | > 100 µM | > 100 µM | > 100 µM | > 100 µM | > 100 µM | > 100 µM | –
CC12CCCC(C(=O)O)(C1)[C@H](C(C)(C)C(=O)O)CC2 (stereo not given in full) | > 100 µM | > 100 µM | > 100 µM | > 100 µM | > 100 µM | > 100 µM | > 100 µM | > 100 µM | – | > 100 µM | > 100 µM | > 100 µM | > 100 µM | > 100 µM | > 100 µM | > 100 µM | > 100 µM | > 100 µM | > 100 µM
NC(CSS(=O)(=O)O)=NC1CC2CCC1C2 (stereo not given) | > 100 µM | > 100 µM | > 100 µM | > 100 µM | > 100 µM | > 100 µM | – | > 100 µM | > 100 µM | > 100 µM | > 100 µM | > 100 µM | > 100 µM | > 100 µM | > 100 µM | > 100 µM | > 100 µM | – | > 100 µM
Cc1nc(N)c(N2CCN(S(N)(=O)=O)CC2)c(=O)[nH]1 | – | > 100 µM | > 100 µM | – | > 100 µM | > 100 µM | > 100 µM | > 100 µM | – | – | – | > 100 µM | > 100 µM | > 100 µM | > 100 µM | > 100 µM | – | > 100 µM | > 100 µM
COc1cccc(Nc2nc(C)c([N+](=O)[O-])c(Nc3cccc(OC)c3)n2)c1 | – | > 100 µM | > 100 µM | > 100 µM | > 100 µM | – | > 100 µM | > 100 µM | 35.2 µM | 77.2 µM | > 100 µM | > 100 µM | > 100 µM | > 100 µM | > 100 µM | > 100 µM | 38.8 µM | > 100 µM | > 100 µM
O=C(O)c1cccc(Nc2c(C(=O)O)cccc2[N+](=O)[O-])c1 | > 100 µM | > 100 µM | > 100 µM | > 100 µM | > 100 µM | > 100 µM | > 100 µM | > 100 µM | – | > 100 µM | > 100 µM | > 100 µM | > 100 µM | > 100 µM | – | – | > 100 µM | > 100 µM | > 100 µM
CN1CCC23c4c5ccc(Oc6nnnn6-c6ccccc6)c4OC2c2[nH]c4ccccc4c2CC3(O)C1C5 (stereo not given) | 4.77 µM | 3.45 µM | 6.36 µM | 23 µM | 5.12 µM | 7.53 µM | 32.6 µM | 9.6 µM | 5.67 µM | – | 25.4 µM | 8.67 µM | 22.4 µM | 3.72 µM | 6.14 µM | 3.65 µM | 3.52 µM | 3.18 µM | 4.01 µM
COC(=O)c1ccccc1/C=C1\Cc2c(C)c3c(c(C)c2C1=O)CCC3 | > 100 µM | > 100 µM | > 100 µM | > 100 µM | > 100 µM | > 100 µM | > 100 µM | > 100 µM | > 100 µM | > 100 µM | – | > 100 µM | > 100 µM | > 100 µM | > 100 µM | > 100 µM | > 100 µM | > 100 µM | > 100 µM
O=c1[nH]c2cccc([N+](=O)[O-])c2c(=O)n1-c1ccc(Cl)cc1 | 19.5 µM | 61.7 µM | 30.2 µM | 40.1 µM | 25.5 µM | 16.4 µM | 36.5 µM | 29.4 µM | 37.1 µM | 24 µM | 28 µM | 33.9 µM | 45 µM | 35.2 µM | 27.1 µM | 59.7 µM | 23.1 µM | – | –
CCSc1nnc(Sc2c3ccccc3nc3ccccc23)s1 | 15.5 µM | 23.5 µM | 13.3 µM | > 55 µM | 17.5 µM | 34.7 µM | 43.4 µM | > 51.5 µM | 35.3 µM | 38.6 µM | > 100 µM | 59.9 µM | > 84.5 µM | > 100 µM | > 40.8 µM | > 57.9 µM | 31.6 µM | 23.7 µM | –
CC(C)(C)c1cc(S(=O)(=O)O)c2oc(-c3ccccc3)cc(=O)c2c1 | > 100 µM | > 100 µM | > 100 µM | > 100 µM | > 100 µM | – | – | > 100 µM | > 100 µM | > 100 µM | – | > 100 µM | > 100 µM | > 100 µM | > 100 µM | > 100 µM | – | > 100 µM | > 100 µM
C=CC(C)(C)n1cc(C2=C3OC(=O)C(c4cn(C(C)(C)C=C)c5ccccc45)=C3OC2=O)c2ccccc21 | > 100 µM | > 100 µM | > 100 µM | > 100 µM | > 100 µM | > 100 µM | > 100 µM | > 100 µM | > 100 µM | > 100 µM | – | > 100 µM | > 100 µM | > 100 µM | > 100 µM | > 100 µM | – | > 100 µM | > 100 µM
CN1CCCC2C(c3ccccc3)C(C3=NCCCC3)C(c3ccccc3)CC21 (stereo not given) | > 100 µM | > 100 µM | > 100 µM | > 100 µM | > 100 µM | > 100 µM | > 100 µM | > 100 µM | > 100 µM | 31.7 µM | > 100 µM | > 100 µM | > 100 µM | > 100 µM | > 100 µM | > 100 µM | 32.4 µM | – | 54.5 µM
